Results reported in ChEMBL document CHEMBL1201862, “PubChem BioAssay data set” (2004).
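Assay format: 96-well plates, 48-hour exposure. At the GI50, growth is halved.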 Calls of active or inactive are those of the source. No stated cut-off is given here; in the data, active = GI50 up to about 1.1 µM and inactive = higher.

What was measured:
Assay in all cases: NCI-60 cell line screen, 48 h
[1] = tested on: UO-31
[2] = tested on: SN12C
[3] = tested on: NCI-H522
[4] = tested on: CAKI-1
[5] = tested on: HOP-62
[6] = tested on: KM12
[7] = tested on: OVCAR-5
[8] = tested on: LOX IMVI
[9] = tested on: K562
[10] = tested on: Malme-3M
[11] = tested on: SK-MEL-28
[12] = tested on: HT-29
[13] = tested on: U-251
[14] = tested on: SK-MEL-5
[15] = tested on: EKVX
[16] = tested on: A498
[17] = tested on: HCC 2998
[18] = tested on: M14
[19] = tested on: SR
[20] = tested on: MDA-MB-231

Compound	GI50 [1]	GI50 [2]	GI50 [3]	GI50 [4]	GI50 [5]	GI50 [6]	GI50 [7]	GI50 [8]	GI50 [9]	GI50 [10]	GI50 [11]	GI50 [12]	GI50 [13]	GI50 [14]	GI50 [15]	GI50 [16]	GI50 [17]	GI50 [18]	GI50 [19]	GI50 [20]
Nc1nc(Cl)nc2c1ncn2C1CC(O)C(CO)O1 (stereo not given)	0.701 µM (active)	0.738 µM (active)	25.5 µM (inactive)	0.665 µM (active)	0.33 µM (active)	> 100 µM (inactive)	1.78 µM (inactive)	3.62 µM (inactive)	13.4 µM (inactive)	> 100 µM (inactive)	43.3 µM (inactive)	19.3 µM (inactive)	10.4 µM (inactive)	5.12 µM (inactive)	1.21 µM (inactive)	2.95 µM (inactive)	19.3 µM (inactive)	–	–	–
COC(=O)C(Cc1ccc2c(c1)OCO2)(NC(=O)c1ccccc1)P(=O)(OC)OC (stereo not given)	> 100 µM (inactive)	> 100 µM (inactive)	> 100 µM (inactive)	> 100 µM (inactive)	> 100 µM (inactive)	> 100 µM (inactive)	> 100 µM (inactive)	> 100 µM (inactive)	> 100 µM (inactive)	–	> 100 µM (inactive)	> 100 µM (inactive)	> 100 µM (inactive)	> 100 µM (inactive)	> 100 µM (inactive)	> 100 µM (inactive)	> 100 µM (inactive)	> 100 µM (inactive)	> 100 µM (inactive)	–
CCOC(=O)/C(Cl)=C(\C)Nc1nc2c(ccc3ccccc32)s1	> 100 µM (inactive)	47.6 µM (inactive)	9.35 µM (inactive)	87.9 µM (inactive)	37.9 µM (inactive)	30.6 µM (inactive)	81.1 µM (inactive)	–	17.5 µM (inactive)	15.6 µM (inactive)	> 100 µM (inactive)	45.3 µM (inactive)	> 100 µM (inactive)	31.2 µM (inactive)	32.6 µM (inactive)	> 100 µM (inactive)	16.4 µM (inactive)	33.2 µM (inactive)	19.5 µM (inactive)	60.5 µM (inactive)
O=c1ccc2ccc(CBr)cc2o1	–	2.69 µM (inactive)	1.26 µM (inactive)	1.55 µM (inactive)	17 µM (inactive)	–	1.73 µM (inactive)	1.5 µM (inactive)	2.18 µM (inactive)	–	13.6 µM (inactive)	2.48 µM (inactive)	1.81 µM (inactive)	2.79 µM (inactive)	2.49 µM (inactive)	16 µM (inactive)	3.34 µM (inactive)	2.8 µM (inactive)	2.2 µM (inactive)	1.72 µM (inactive)
COc1cc(C2S/C(=C/c3ccccc3)C(=O)N2c2ccccc2Cl)cc(OC)c1OC (stereo not given)	28.5 µM (inactive)	21.4 µM (inactive)	12.4 µM (inactive)	32.6 µM (inactive)	31.3 µM (inactive)	22 µM (inactive)	42.5 µM (inactive)	18.7 µM (inactive)	–	29.8 µM (inactive)	42.2 µM (inactive)	19.1 µM (inactive)	22.1 µM (inactive)	20.7 µM (inactive)	13.6 µM (inactive)	43.4 µM (inactive)	33 µM (inactive)	20.2 µM (inactive)	–	23.4 µM (inactive)
C=C1C(=O)O[C@@H]2[C@H](O)[C@@H](C)[C@@H]3C=CC(=O)[C@@]3(C)[C@@H](OC(=O)/C(C)=C/C)[C@H]12	5.31 µM (inactive)	0.465 µM (active)	0.0889 µM (active)	0.782 µM (active)	7.46 µM (inactive)	1.01 µM (active)	3.81 µM (inactive)	0.869 µM (active)	0.483 µM (active)	0.914 µM (active)	0.344 µM (active)	0.745 µM (active)	0.733 µM (active)	1.18 µM (inactive)	0.774 µM (active)	1.32 µM (inactive)	0.656 µM (active)	–	–	–
Clc1nc(-[n+]2ccc(-c3ccncc3)cc2)nc(Nc2ccccc2)c1Cl	> 100 µM (inactive)	> 100 µM (inactive)	–	–	> 100 µM (inactive)	> 100 µM (inactive)	> 100 µM (inactive)	50.4 µM (inactive)	52.1 µM (inactive)	> 100 µM (inactive)	> 100 µM (inactive)	> 100 µM (inactive)	70.5 µM (inactive)	> 100 µM (inactive)	83.8 µM (inactive)	> 100 µM (inactive)	> 100 µM (inactive)	> 100 µM (inactive)	26.2 µM (inactive)	> 100 µM (inactive)
CC(C)(C)c1ccc2c(c1)OP1(Oc3c(Cl)cc(Cl)c4cccnc34)(O2)Oc2ccc(C(C)(C)C)cc2O1	5.08 µM (inactive)	11 µM (inactive)	2.9 µM (inactive)	3.78 µM (inactive)	5.01 µM (inactive)	6.87 µM (inactive)	13.7 µM (inactive)	5.55 µM (inactive)	3.94 µM (inactive)	10.8 µM (inactive)	11.3 µM (inactive)	5.2 µM (inactive)	4.63 µM (inactive)	8.51 µM (inactive)	5.16 µM (inactive)	14.1 µM (inactive)	11.3 µM (inactive)	–	–	–
Cc1ccc(S(=O)(=O)OCCN(CCOS(=O)(=O)c2ccc(C)cc2)c2ccc(C=O)cc2)cc1	19.5 µM (inactive)	–	10.8 µM (inactive)	21.1 µM (inactive)	–	22.8 µM (inactive)	25.3 µM (inactive)	38.7 µM (inactive)	38.4 µM (inactive)	25.4 µM (inactive)	31.4 µM (inactive)	32.1 µM (inactive)	24.3 µM (inactive)	32.9 µM (inactive)	30.8 µM (inactive)	24.9 µM (inactive)	28.7 µM (inactive)	32.4 µM (inactive)	–	23.8 µM (inactive)
C[C@H](N[C@H]1CCC[C@]1(O)C#Cc1ccc2c(c1)OCO2)c1ccccc1	> 25 µM (inactive)	–	–	> 25 µM (inactive)	> 25 µM (inactive)	> 25 µM (inactive)	> 25 µM (inactive)	> 25 µM (inactive)	11.7 µM (inactive)	–	15.5 µM (inactive)	> 25 µM (inactive)	19.7 µM (inactive)	22.6 µM (inactive)	> 25 µM (inactive)	> 25 µM (inactive)	10.7 µM (inactive)	14.2 µM (inactive)	20.7 µM (inactive)	22.1 µM (inactive)
Cc1cc(O)nc(NN2C(Cl)C(=O)C2c2cccc(Cl)c2)n1 (stereo not given)	24.2 µM (inactive)	20.5 µM (inactive)	–	–	27.1 µM (inactive)	21.7 µM (inactive)	58.2 µM (inactive)	14.4 µM (inactive)	17.6 µM (inactive)	–	22.4 µM (inactive)	23.4 µM (inactive)	30.5 µM (inactive)	18.4 µM (inactive)	36.6 µM (inactive)	–	31.2 µM (inactive)	17.4 µM (inactive)	16 µM (inactive)	–
